Data taken from patent publication US8952024B2, “Herbicidal pyrimidone derivatives” (E I du Pont de Nemours and Company, priority 2009, dated 2015).

Columns and labels:
Experiment in all cases: Test B pre-/postemergence plant response
Assay type in all cases: in vivo
[1] = system: Italian ryegrass (Lolium multiflorum)
How it was run: (§1)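 Ratings reflect visual comparison with untreated controls 13 to 15 days after application, from 0 (no effect) to 100 (complete control). Application was preemergence to seeded loam/sand soil or postemergence to 1- to 4-leaf plants, with compound in a non-phytotoxic, surfactant-containing solvent.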

[2] = system: Surinam grass (Brachiaria decumbens)
How it was run: as §1

[3] = system: bermudagrass (Cynodon dactylon)
How it was run: as §1

[4] = system: blackgrass (Alopecurus myosuroides)
How it was run: as §1

[5] = system: corn (Zea mays)
How it was run: as §1

[6] = system: downy bromegrass (Bromus tectorum)
How it was run: as §1

[7] = system: giant foxtail (Setaria faberii)
How it was run: as §1

[8] = system: green foxtail (Setaria viridis)
How it was run: as §1

[9] = system: lambsquarters (Chenopodium album)
How it was run: as §1

[10] = system: large crabgrass (Digitaria sanguinalis)
How it was run: as §1

[11] = system: morningglory (Ipomoea coccinea)
How it was run: as §1

[12] = system: woolly cupgrass (Eriochloa villosa)
How it was run: as §1

[13] = system: yellow nutsedge (Cyperus esculentus)
How it was run: as §1

[14] = 31 g ai/ha, postemergence, scale 0 to 100, 0 is no effect, 100 is complete control
[15] = 62 g ai/ha, postemergence, 0 is no effect, 100 is complete control, 13 to 15 days
[16] = Postemergence, 125 g ai/ha, visual rating after 13 to 15 days, scale 0 (no effect) to 100 (complete control)
[17] = Postemergence, 250 g ai/ha, scale 0 to 100 (0 no effect, 100 complete control)
[18] = Preemergence, 31 g ai/ha, scale 0 to 100 (0 no effect, 100 complete control)
[19] = Preemergence, 62 g ai/ha, scale 0 to 100 (0 no effect, 100 complete control)
[20] = Preemergence, 125 g ai/ha, scale 0 to 100, 0 no effect, 100 complete control
[21] = Preemergence, 250 g ai/ha, 0 to 100 scale

## CCCc1ncc(C(=O)C2=C(O)CCCC2=O)c(=O)n1CC1CCCO1 (stereo not shown) [Compound 74]
[1]; [14]
  Plant response rating, Ryegrass, Italian: 5
[1]; [15]
  Ryegrass, Italian plant response rating (0 to 100 scale): 20
[1]; [16]
  Plant response rating, Ryegrass, Italian: 20
[1]; [17]
  Plant response rating, Ryegrass, Italian: 35
[1]; [18]
  Plant response rating, Ryegrass, Italian: 0
[1]; [19]
  Plant response rating, Ryegrass, Italian: 0
[1]; [20]
  Plant response rating, Ryegrass, Italian: 0
[1]; [21]
  Ryegrass, Italian plant response rating: 0
[2]; [14]
  Plant response rating, Surinam Grass: 20
[2]; [15]
  Surinam Grass plant response rating (0 to 100 scale): 45
[2]; [16]
  Plant response rating, Surinam Grass: 65
[2]; [17]
  Plant response rating, Surinam Grass: 75
[2]; [18]
  Plant response rating, Surinam Grass: 0
[2]; [19]
  Plant response rating, Surinam Grass: 80
[2]; [20]
  Plant response rating, Surinam Grass: 85
[2]; [21]
  Surinam Grass plant response rating: 95
[3]; [14]
  Plant response rating, Bermudagrass: 75
[3]; [15]
  Bermudagrass plant response rating (0 to 100 scale): 80
[3]; [16]
  Plant response rating, Bermudagrass: 95
[3]; [17]
  Plant response rating, Bermudagrass: 98
[3]; [19]
  Plant response rating, Bermudagrass: 98
[3]; [20]
  Plant response rating, Bermudagrass: 100
[3]; Preemergence, 250 g ai/ha, 0 to 100 scale, 0 no effect, 100 complete control
  Bermudagrass plant response rating: 100
[4]; [14]
  Plant response rating, Blackgrass: 0
[4]; [15]
  Blackgrass plant response rating (0 to 100 scale): 0
[4]; [16]
  Plant response rating, Blackgrass: 25
[4]; [17]
  Plant response rating, Blackgrass: 45
[4]; [18]
  Plant response rating, Blackgrass: 0
[4]; [19]
  Plant response rating, Blackgrass: 0
[4]; [20]
  Plant response rating, Blackgrass: 0
[4]; [21]
  Blackgrass plant response rating: 10
[5]; [14]
  Plant response rating, Corn: 0
[5]; [15]
  Corn plant response rating (0 to 100 scale): 0
[5]; [16]
  Plant response rating, Corn: 15
[5]; [17]
  Plant response rating, Corn: 60
[5]; [18]
  Plant response rating, Corn: 0
[5]; [19]
  Plant response rating, Corn: 0
[5]; [20]
  Plant response rating, Corn: 0
[5]; [21]
  Corn plant response rating: 0
[6]; [14]
  Plant response rating, Bromegrass, Downy: 0
[6]; [15]
  Bromegrass, Downy plant response rating (0 to 100 scale): 5
[6]; [16]
  Plant response rating, Bromegrass, Downy: 5
[6]; [17]
  Plant response rating, Bromegrass, Downy: 35
[6]; [18]
  Plant response rating, Bromegrass, Downy: 0
[6]; [19]
  Plant response rating, Bromegrass, Downy: 0
[6]; [20]
  Plant response rating, Bromegrass, Downy: 0
[6]; [21]
  Bromegrass, Downy plant response rating: 0
[7]; [14]
  Plant response rating, Foxtail, Giant: 25
[7]; [15]
  Foxtail, Giant plant response rating (0 to 100 scale): 55
[7]; [16]
  Plant response rating, Foxtail, Giant: 70
[7]; [17]
  Plant response rating, Foxtail, Giant: 85
[7]; [18]
  Plant response rating, Foxtail, Giant: 0
[7]; [19]
  Plant response rating, Foxtail, Giant: 0
[7]; [20]
  Plant response rating, Foxtail, Giant: 5
[7]; [21]
  Foxtail, Giant plant response rating: 45
[8]; [14]
  Plant response rating, Foxtail, Green: 20
[8]; [15]
  Foxtail, Green plant response rating (0 to 100 scale): 20
[8]; [16]
  Plant response rating, Foxtail, Green: 80
[8]; [17]
  Plant response rating, Foxtail, Green: 85
[8]; [18]
  Plant response rating, Foxtail, Green: 0
[8]; [19]
  Plant response rating, Foxtail, Green: 0
[8]; [20]
  Plant response rating, Foxtail, Green: 0
[8]; [21]
  Foxtail, Green plant response rating: 0
[9]; [14]
  Plant response rating, Lambsquarters: 95
[9]; [15]
  Lambsquarters plant response rating (0 to 100 scale): 95
[9]; [16]
  Plant response rating, Lambsquarters: 95
[9]; [17]
  Plant response rating, Lambsquarters: 98
[9]; [18]
  Plant response rating, Lambsquarters: 98
[9]; [19]
  Plant response rating, Lambsquarters: 98
[9]; [20]
  Plant response rating, Lambsquarters: 98
[9]; [21]
  Lambsquarters plant response rating: 100
[10]; [14]
  Plant response rating, Crabgrass, Large: 80
[10]; [15]
  Crabgrass, Large plant response rating (0 to 100 scale): 80
[10]; [16]
  Plant response rating, Crabgrass, Large: 95
[10]; [17]
  Plant response rating, Crabgrass, Large: 95
[10]; [18]
  Plant response rating, Crabgrass, Large: 98
[10]; [19]
  Plant response rating, Crabgrass, Large: 98
[10]; [20]
  Plant response rating, Crabgrass, Large: 100
[10]; [21]
  Crabgrass, Large plant response rating: 100
[11]; [14]
  Plant response rating, Morningglory: 60
[11]; [15]
  Morningglory plant response rating (0 to 100 scale): 85
[11]; [16]
  Plant response rating, Morningglory: 95
[11]; [17]
  Plant response rating, Morningglory: 100
[11]; [18]
  Plant response rating, Morningglory: 10
[11]; [19]
  Plant response rating, Morningglory: 60
[11]; [20]
  Plant response rating, Morningglory: 75
[11]; [21]
  Morningglory plant response rating: 80
[12]; [14]
  Plant response rating, Cupgrass, Woolly: 10
[12]; [15]
  Cupgrass, Woolly plant response rating (0 to 100 scale): 10
[12]; [16]
  Plant response rating, Cupgrass, Woolly: 55
[12]; [17]
  Plant response rating, Cupgrass, Woolly: 75
[12]; [18]
  Plant response rating, Cupgrass, Woolly: 0
[12]; [19]
  Plant response rating, Cupgrass, Woolly: 0
[12]; [20]
  Plant response rating, Cupgrass, Woolly: 0
[12]; [21]
  Cupgrass, Woolly plant response rating: 5
[13]; [14]
  Plant response rating, Nutsedge, Yellow: 20
[13]; [15]
  Nutsedge, Yellow plant response rating (0 to 100 scale): 20
[13]; [16]
  Plant response rating, Nutsedge, Yellow: 70
[13]; [17]
  Plant response rating, Nutsedge, Yellow: 70
[13]; [18]
  Plant response rating, Nutsedge, Yellow: 20
[13]; [19]
  Plant response rating, Nutsedge, Yellow: 55
[13]; [20]
  Plant response rating, Nutsedge, Yellow: 65
[13]; [21]
  Nutsedge, Yellow plant response rating: 90
